Assay results reported in ChEMBL document CHEMBL5634077, “Recent advances in 1,2,3- and 1,2,4-triazole hybrids as antimicrobials and their SAR: A critical review” (2023).
Values after ≈ are worked out from the molar mass of the structure shown. One block for each molecule: values may come before it.

Assays:
Assay type in all cases: functional
[1] = test system: Aspergillus flavus; assay: Antifungal activity against Aspergillus flavus assessed as diameter of inhibition zone incubated for 24 hrs by well diffusion assay
[2] = test system: Proteus vulgaris; assay: Antibacterial activity against Proteus vulgaris RCMB 004 assessed as diameter of inhibition zone incubated for 24 hrs by well diffusion assay
[3] = test system: Geotrichum candidum; assay: Antifungal activity against Geotrichum candidum RCMB 052006 assessed as diameter of inhibition zone incubated for 24 hrs by well diffusion assay
[4] = test system: Staphylococcus aureus; assay: Antibacterial activity against Staphylococcus aureus assessed as diameter of inhibition zone incubated for 24 hrs by well diffusion assay
[5] = test system: Escherichia coli; assay: Antibacterial activity against Escherichia coli RCMB 010052 assessed as diameter of inhibition zone incubated for 24 hrs by well diffusion assay
[6] = test system: Bacillus subtilis; assay: Antibacterial activity against Bacillus subtilis RCMB 010069 assessed as diameter of inhibition zone incubated for 24 hrs by well diffusion assay
[7] = test system: Cryptococcus neoformans; assay: Antifungal activity against Cryptococcus neoformans 32609 assessed as reduction in fungal growth incubated for 72 hrs by NCCLS based assay
[8] = test system: Candida albicans; assay: Antifungal activity against Candida albicans SC5314 assessed as reduction in fungal growth incubated for 24 hrs by NCCLS based assay
[9] = test system: Nakaseomyces glabratus; assay: Antifungal activity against Candida glabrata 537 assessed as reduction in fungal growth incubated for 72 hrs by NCCLS based assay
[10] = test system: Aspergillus fumigatus; assay: Antifungal activity against Aspergillus fumigatus 7544 assessed as reduction in fungal growth incubated for 5 to 7 days by NCCLS based assay; details: time 5-7 day
[11] = test system: Candida albicans; assay: Antifungal activity against Candida albicans Y0109 assessed as reduction in fungal growth incubated for 24 hrs by NCCLS based assay
[12] = test system: Trichophyton rubrum; assay: Antifungal activity against Trichophyton rubrum assessed as reduction in fungal growth incubated for 5 to 7 days by NCCLS based assay; details: time 5-7 day
[13] = test system: Nannizzia gypsea; assay: Antifungal activity against Microsporum gypseum assessed as reduction in fungal growth incubated for 5 to 7 days by NCCLS based assay; details: time 5-7 day
[14] = test system: Pseudomonas aeruginosa; assay: Antibacterial activity against Pseudomonas aeruginosa MTCC 1034 assessed as reduction in bacterial growth
[15] = test system: Bacillus subtilis; assay: Antibacterial activity against Bacillus subtilis MTCC 441 assessed as reduction in bacterial growth
[16] = test system: Staphylococcus epidermidis; assay: Antibacterial activity against Methicillin-resistant Staphylococcus epidermidis assessed as bacterial growth inhibition
[17] = test system: Staphylococcus epidermidis; assay: Antibacterial activity against Methicillin-sensitive Staphylococcus epidermidis assessed as bacterial growth inhibition
[18] = test system: Staphylococcus aureus; assay: Antibacterial activity against Methicillin-resistant Staphylococcus aureus assessed as bacterial growth inhibition
[19] = test system: Staphylococcus aureus; assay: Antibacterial activity against Methicillin-sensitive Staphylococcus aureus assessed as bacterial growth inhibition
[20] = test system: Enterococcus faecalis; assay: Antibacterial activity against Enterococcus faecalis assessed as bacterial growth inhibition
[21] = test system: Enterococcus faecium; assay: Antibacterial activity against Enterococcus faecium assessed as inhibition of bacterial growth

SMILES: Cc1c(-c2cc(-c3c[nH]c4ccccc34)nc(NN)n2)nnn1-c1ccc(-n2nnc(-c3cc(-c4c[nH]c5ccccc45)nc(NN)n3)c2C)cc1
diameter of the inhibition zone (DIZ) [1]: 21.3 mm | diameter of the inhibition zone (DIZ) [2]: 26.9 mm | diameter of the inhibition zone (DIZ) [3]: 24.4 mm | diameter of the inhibition zone (DIZ) [4]: 20.9 mm | diameter of the inhibition zone (DIZ) [5]: 33.9 mm | diameter of the inhibition zone (DIZ) [6]: 41.3 mm

MIC80 [7]: 2 µg/mL (≈ 4.54 µM) | MIC80 [8]: 0.25 µg/mL (≈ 0.568 µM) | MIC80 [9]: 0.5 µg/mL (≈ 1.14 µM) | MIC80 [10]: 8 µg/mL (≈ 18.2 µM) | MIC80 [11]: 0.125 µg/mL (≈ 0.284 µM) | MIC80 [12]: 4 µg/mL (≈ 9.08 µM) | MIC80 [13]: 2 µg/mL (≈ 4.54 µM)
SMILES: Cc1ccc(-c2cc(CO[C@H](C)[C@](O)(Cn3cncn3)c3ccc(F)cc3F)on2)cc1

MIC80 [7]: 0.5 µg/mL (≈ 1.13 µM) | MIC80 [8]: 0.031 µg/mL (≈ 0.0698 µM) | MIC80 [9]: 0.125 µg/mL (≈ 0.281 µM) | MIC80 [10]: 4 µg/mL (≈ 9 µM) | MIC80 [11]: 0.031 µg/mL (≈ 0.0698 µM) | MIC80 [12]: 1 µg/mL (≈ 2.25 µM) | MIC80 [13]: 0.5 µg/mL (≈ 1.13 µM)
SMILES: C[C@@H](OCc1cc(-c2ccc(F)cc2)no1)[C@](O)(Cn1cncn1)c1ccc(F)cc1F

MIC [14]: 1.25 µg/mL (≈ 3.82 µM) | MIC [15]: 1.25 µg/mL (≈ 3.82 µM)
SMILES: C=CCCC1CC(=O)N1Cc1cn(-c2cccc([N+](=O)[O-])c2)nn1 (centres undefined)

MIC80 [7]: 1 µg/mL (≈ 2.16 µM) | MIC80 [8]: 0.5 µg/mL (≈ 1.08 µM) | MIC80 [9]: 0.5 µg/mL (≈ 1.08 µM) | MIC80 [10]: 8 µg/mL (≈ 17.3 µM) | MIC80 [11]: 0.25 µg/mL (≈ 0.541 µM) | MIC80 [12]: 2 µg/mL (≈ 4.33 µM) | MIC80 [13]: 1 µg/mL (≈ 2.16 µM)
SMILES: C[C@@H](OCc1cc(-c2cccc(F)c2F)no1)[C@](O)(Cn1cncn1)c1ccc(F)cc1F

SMILES: Cc1c(C(=O)/C=C/c2cccnc2)nnn1-c1ccc(-n2nnc(C(=O)/C=C/c3cccnc3)c2C)cc1
diameter of the inhibition zone (DIZ) [1]: 18.03 mm | diameter of the inhibition zone (DIZ) [2]: 17.8 mm | diameter of the inhibition zone (DIZ) [3]: 19.3 mm | diameter of the inhibition zone (DIZ) [4]: 17.3 mm | diameter of the inhibition zone (DIZ) [5]: 23.7 mm | diameter of the inhibition zone (DIZ) [6]: 29.3 mm

SMILES: Cc1c(-c2cc(-c3c[nH]c4ccccc34)[nH]n2)nnn1-c1ccc(-n2nnc(-c3cc(-c4c[nH]c5ccccc45)[nH]n3)c2C)cc1
diameter of the inhibition zone (DIZ) [1]: 19.5 mm | diameter of the inhibition zone (DIZ) [2]: 19.2 mm | diameter of the inhibition zone (DIZ) [3]: 23.9 mm | diameter of the inhibition zone (DIZ) [4]: 19.3 mm | diameter of the inhibition zone (DIZ) [5]: 28.4 mm | diameter of the inhibition zone (DIZ) [6]: 33.5 mm

SMILES: COc1c(N2C[C@H]3CCCN(C(=O)Cn4cc(CN5C(=O)C(=O)c6ccccc65)nn4)[C@H]3C2)c(F)cc2c(=O)c(C(=O)O)cn(C3CC3)c12
MIC [16]: 0.06 µg/mL (≈ 0.0896 µM) | MIC [17]: 0.06 µg/mL (≈ 0.0896 µM) | MIC [18]: 0.06 µg/mL (≈ 0.0896 µM) | MIC [19]: 0.06 µg/mL (≈ 0.0896 µM) | MIC [20]: 0.06 µg/mL (≈ 0.0896 µM) | MIC [21]: 0.06 µg/mL (≈ 0.0896 µM)

SMILES: Cc1c(C(=O)/C=C/c2c[nH]c3ccccc23)nnn1-c1ccc(-n2nnc(C(=O)/C=C/c3c[nH]c4ccccc34)c2C)cc1
diameter of the inhibition zone (DIZ) [1]: 19.2 mm | diameter of the inhibition zone (DIZ) [2]: 15.4 mm | diameter of the inhibition zone (DIZ) [3]: 17.2 mm | diameter of the inhibition zone (DIZ) [4]: 12 mm | diameter of the inhibition zone (DIZ) [5]: 25 mm | diameter of the inhibition zone (DIZ) [6]: 34.2 mm

SMILES: Cc1c(C(=O)/C=C/c2ccncc2)nnn1-c1ccc(-n2nnc(C(=O)/C=C/c3ccncc3)c2C)cc1
diameter of the inhibition zone (DIZ) [1]: 18.43 mm | diameter of the inhibition zone (DIZ) [2]: 17.3 mm | diameter of the inhibition zone (DIZ) [3]: 21.3 mm | diameter of the inhibition zone (DIZ) [4]: 19.2 mm | diameter of the inhibition zone (DIZ) [5]: 26.3 mm | diameter of the inhibition zone (DIZ) [6]: 28.2 mm

SMILES: CCO/N=C1/C(=O)N(Cc2cn(CC(=O)N3CCC[C@@H]4CN(c5c(F)cc6c(=O)c(C(=O)O)cn(C7CC7)c6c5OC)C[C@@H]43)nn2)c2cc(F)ccc21
MIC [16]: 0.06 µg/mL (≈ 0.0821 µM) | MIC [17]: 0.06 µg/mL (≈ 0.0821 µM) | MIC [18]: 0.06 µg/mL (≈ 0.0821 µM) | MIC [19]: 0.06 µg/mL (≈ 0.0821 µM) | MIC [20]: 0.06 µg/mL (≈ 0.0821 µM) | MIC [21]: 0.06 µg/mL (≈ 0.0821 µM)

SMILES: CCO/N=C1/C(=O)N(Cc2cn(CC(=O)N3CCC[C@@H]4CN(c5c(F)cc6c(=O)c(C(=O)O)cn(C7CC7)c6c5OC)C[C@@H]43)nn2)c2cccc(F)c21
MIC [16]: 0.06 µg/mL (≈ 0.0821 µM) | MIC [17]: 0.06 µg/mL (≈ 0.0821 µM) | MIC [18]: 0.06 µg/mL (≈ 0.0821 µM) | MIC [19]: 0.06 µg/mL (≈ 0.0821 µM) | MIC [20]: 0.06 µg/mL (≈ 0.0821 µM) | MIC [21]: 0.06 µg/mL (≈ 0.0821 µM)

MIC80 [7]: 1 µg/mL (≈ 2.08 µM) | MIC80 [8]: 0.125 µg/mL (≈ 0.26 µM) | MIC80 [9]: 0.125 µg/mL (≈ 0.26 µM) | MIC80 [10]: 4 µg/mL (≈ 8.33 µM) | MIC80 [11]: 0.062 µg/mL (≈ 0.129 µM) | MIC80 [12]: 2 µg/mL (≈ 4.16 µM) | MIC80 [13]: 1 µg/mL (≈ 2.08 µM)
SMILES: C[C@@H](OCc1cc(-c2c(F)cc(F)cc2F)no1)[C@](O)(Cn1cncn1)c1ccc(F)cc1F

SMILES: Cc1c(-c2cc(-c3ccccn3)nc(S)n2)nnn1-c1ccc(-n2nnc(-c3cc(-c4ccccn4)nc(S)n3)c2C)cc1
diameter of the inhibition zone (DIZ) [1]: 24.02 mm | diameter of the inhibition zone (DIZ) [2]: 23.3 mm | diameter of the inhibition zone (DIZ) [3]: 26.3 mm | diameter of the inhibition zone (DIZ) [4]: 23.3 mm | diameter of the inhibition zone (DIZ) [5]: 35.2 mm | diameter of the inhibition zone (DIZ) [6]: 36.2 mm
